Experimental data published in patent US11229618B2 (Amarin Pharmaceuticals Ireland Limited, priority 2012, dated 2022).

System: fasting TG levels
Test: ANCHOR: fasting TG lowering and LDL-C
Assay type: in vivo, human
Settings: for median percent reductions in TG from baseline, 4 g/day compared with 2 g/day: 12 weeks
Experimental: A multi-center, placebo-controlled, randomized, double-blind, 12-week study was performed to evaluate the efficacy and safety of >96% E-EPA in patients with fasting triglyceride levels≥200 mg/dl and <500 mg/dl despite statin therapy (the mean of two qualifying entry values needed to be ≥185 mg/dl and at least one of the values needed to be ≥200 mg/dl). The primary objective of the study was to determine the efficacy of >96% E-EPA 2 g daily and 4 g daily, compared to placebo, in lowering fasting TG levels in patients with high risk for cardiovascular disease and with fasting TG levels≥200 mg/dL and <500 mg/dL, despite treatment to LDL-C goal on statin therapy.
The primary efficacy variable for the double-blind treatment period was percent change in TG from baseline to Week 12 endpoint. The secondary efficacy variables for the double-blind treatment period included the following: • Percent changes in total cholesterol (TC), high-density lipoprotein cholesterol (HDL-C), LDL-C, calculated non-HDL-C, and very low-density lipoprotein cholesterol (VLDL-C) from baseline to Week 12 endpoint; • Percent change in very low-density lipoprotein TG from baseline to Week 12; • Percent changes in apolipoprotein A-I (apo A-I), apolipoprotein B (apo B), and apo A-I/apo B ratio from baseline to Week 12; • Percent changes in lipoprotein(a) from baseline to Week 12; • Percent changes in LDL particle number and size, measured by nuclear magnetic resonance, from baseline to Week 12; • Percent change in remnant-like particle cholesterol from baseline to Week 12; • Percent change in oxidized LDL from baseline to Week 12; • Changes in FPG and HbA1c from baseline to Week 12; • Change in insulin resistance, as assessed by the homeostasis model index insulin resistance, from baseline to Week 12; • Percent change in lipoprotein associated phospholipase A2 (Lp-PLA2) from baseline to Week 12; • Change in intracellular adhesion molecule-1 from baseline to Week 12; • Change in interleukin-2 from baseline to Week 12; • Change in plasminogen activator inhibitor-1 from baseline to Week 12. Note: this parameter will only be collected at sites with proper storage conditions; • Change in hsCRP from baseline to Week 12; and • Change in plasma concentration and red blood cell membrane content of fatty acid from baseline to Week 12 including EPA, docosapentaenoic acid (DPA), docosahexaenoic acid (DHA), arachidonic acid (AA), dihomo-γ-linolenic acid (DGLA), the ratio of EPA/AA, ratio of oleic acid/stearic acid (OA/SA), and the ratio of total omega-3 acids over total omega-6 acids.
The primary efficacy analysis was performed using a 2-way analysis of covariance (ANCOVA) model with treatment as a factor and baseline TG value as a covariate. […]

SMILES: CC/C=C\C/C=C\C/C=C\C/C=C\C/C=C\CCCC(=O)OCC [IPE, all-cis eicosa-5,8,11,14,17-pentaenoic acid ethyl ester]
- effect on LDL-C: without raising LDL-C
- median percent reductions in TG from baseline, 4 g/day compared with 2 g/day: higher with IPE 4 g/day than with 2 g/day
- median percent reductions in TG from baseline, 4 g/day compared with 2 g/day (listed as EPA): higher for subjects administered about 4 grams of EPA per day
- effect on TG levels (patients with high TG levels on statin therapy): significantly reduced TG levels
